According to ChEMBL document CHEMBL1201862, “PubChem BioAssay data set” (2004):
Values joined by “and” are separate entries in the source; they are usually repeats but may differ in a detail not shown here. Equal entries are not always repeated.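 Grown in 96-well plates, cells were treated for 48 hours with each compound at five concentrations. Insufficient inhibition: endpoint recorded as highest concentration tested. Abbreviation: GI50, concentration required for 50% inhibition of growth.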 Active and inactive are the calls of the source. Cut-off read from the data, not from the text of the source: active = GI50 up to about 1.1 µM and inactive = higher.

Experiments:
Assay in all cases: DTP human tumour cell line panel, 48 h
[1] = test system: DLD-1
[2] = test system: DMS-114
[3] = test system: DMS-273
[4] = test system: HOP-18
[5] = test system: KM-20L2
[6] = test system: LXFL 529
[7] = test system: M19-MEL
[8] = test system: RXF 631
[9] = test system: XF498

Row | Compound | GI50 [1] | GI50 [2] | GI50 [3] | GI50 [4] | GI50 [5] | GI50 [6] | GI50 [7] | GI50 [8] | GI50 [9]
1 | O=C(Nc1nc2ncn(CCOC(=O)c3ccccc3)c2c(=S)[nH]1)c1ccccc1 | > 100 µM (inactive) | 64.4 µM (inactive) | 50.9 µM (inactive) | > 100 µM (inactive) | > 100 µM (inactive) | 49.3 µM (inactive) | 50.4 µM (inactive) | – | –
2 | CCOC(=O)C1(C)CCCCC(=O)N1 (stereo not given) | > 100 µM (inactive) | > 100 µM (inactive) | > 100 µM (inactive) | 64.3 µM (inactive) | > 100 µM (inactive) | > 100 µM (inactive) | > 100 µM (inactive) | > 100 µM (inactive) | > 100 µM (inactive)
3 | C=CCCn1nc(-c2ccccc2)oc1=O | > 100 µM (inactive) | – | > 100 µM (inactive) | > 100 µM (inactive) | > 100 µM (inactive) | > 100 µM (inactive) | > 100 µM (inactive) | – | > 100 µM (inactive)
4 | CCCc1cc(-c2ccc(-c3cc(CCC)c(C=O)[nH]3)s2)[nH]c1C=O | 44.5 µM (inactive) | 8.77 µM (inactive) | 86.1 µM (inactive) | 53 µM (inactive) | – | 76.4 µM (inactive) | 4.53 µM (inactive) | – | > 100 µM (inactive)
5 | Cc1nc2c(nc1C)C(=O)C1=C(C2=O)C2C=CC1CC2 | 7.53 µM (inactive) | 1.75 µM (inactive) | 14.6 µM (inactive) | 16.4 µM (inactive) | 23.3 µM (inactive) | 1.75 µM (inactive) | 1.75 µM (inactive) | 6.15 µM (inactive) | 5.65 µM (inactive)
6 | CN=[S+]([O-])(c1ccccc1)c1ccccc1 | > 100 µM (inactive) | > 100 µM (inactive) | > 100 µM (inactive) | > 100 µM (inactive) | > 100 µM (inactive) | – | > 100 µM (inactive) | – | > 100 µM (inactive)
7 | NC(=S)N/N=C(\CCC(=O)Nc1ccccc1[N+](=O)[O-])CC(=O)c1ccco1 | > 100 µM (inactive) | > 100 µM (inactive) | > 100 µM (inactive) | > 100 µM (inactive) | > 100 µM (inactive) | > 100 µM (inactive) | > 100 µM (inactive) | > 100 µM (inactive) | > 100 µM (inactive)
8 | CC1=C(C)C(=O)c2c(cc3ccccn23)C1=O | > 10 µM (inactive) | 12.9 µM (inactive) | 16.6 µM (inactive) | 33.9 µM (inactive) | – | 15.3 µM (inactive) | 1.87 µM (inactive) | 3.12 µM (inactive) | –
9 | CN(C)CCNC(=O)c1cccc2cc3c(Cl)cccc3nc12 | 1.17 µM (inactive) | 1.35 µM (inactive) | 0.562 µM (active) | 4.51 µM (inactive) | 1.54 µM (inactive) | 1.67 µM (inactive) | 1.33 µM (inactive) | 2.55 µM (inactive) | 0.394 µM (active)
10 | Nc1ccc(C2=N/C(=C\c3cccc(N)c3)C(=O)O2)cc1 | > 100 µM (inactive) | > 100 µM (inactive) | – | – | > 100 µM (inactive) | > 100 µM (inactive) | > 100 µM (inactive) | > 100 µM (inactive) | > 100 µM (inactive)
11 | c1ccc([P+](c2ccccc2)(c2ccccc2)C2Sc3ccccc3S2)cc1 | 12.4 µM (inactive) | 12.7 µM (inactive) | 18.1 µM (inactive) | – | 23.4 µM (inactive) | 12.6 µM (inactive) | 15.1 µM (inactive) | 16 µM (inactive) | 17.3 µM (inactive)
12 | O=C(CCC(=O)N/N=C/c1ccccc1O)N/N=C/c1ccccc1O | – | > 100 µM (inactive) | > 100 µM (inactive) | – | > 100 µM (inactive) | > 100 µM (inactive) | > 100 µM (inactive) | – | –
13 | CC1CN1c1c(C(=O)/C=C/c2ccc(Cl)cc2)c(-c2ccccc2)nn(C)c1=O (stereo not given) | 1.71 µM (inactive) | 3.65 µM (inactive) | 2.62 µM (inactive) | 3.92 µM (inactive) | 3.26 µM (inactive) | 2.13 µM (inactive) | 3.14 µM (inactive) | – | 2.99 µM (inactive)
14 | N#C/C(=C\c1ccc(O)cc1)C(N)=O | > 100 µM (inactive) | > 100 µM (inactive) | > 100 µM (inactive) | – | > 100 µM (inactive) | > 100 µM (inactive) | > 100 µM (inactive) | > 100 µM (inactive) | > 100 µM (inactive) and > 88.5 µM (inactive)
15 | COc1cc([C@@H]2c3cc4c(cc3[C@@H](OC(=O)c3cccc(N)c3)C3COC(=O)[C@@H]32)OCO4)cc(OC)c1O (stereo not given in full) | 12.3 µM (inactive) | 3.66 µM (inactive) | 0.525 µM (active) | – | 1.41 µM (inactive) | 0.76 µM (active) | 5.68 µM (inactive) | – | 0.863 µM (active)
16 | O=C(CC(=O)C1=CNc2ccccc2S1)C(=O)Nc1ccc(Cl)cc1 | > 50 µM (inactive) | > 50 µM (inactive) | > 50 µM (inactive) | – | > 50 µM (inactive) | > 50 µM (inactive) | > 50 µM (inactive) | > 50 µM (inactive) | > 50 µM (inactive)
17 | Oc1cc(O)c2c(-c3c(O)c(-c4ccc(O)c(O)c4)[o+]c4cc(O)cc(O)c34)c(O)c(-c3ccc(O)c(O)c3)[o+]c2c1 | 87.7 µM (inactive) | 32.7 µM (inactive) | 39.6 µM (inactive) | 8 µM (inactive) | 46 µM (inactive) | 55.5 µM (inactive) | 45.3 µM (inactive) | 30.9 µM (inactive) | 33.7 µM (inactive)
18 | O=S1(=O)NN=C(NCc2ccc(F)cc2)c2ccccc21 | 58.5 µM (inactive) | – | 47.1 µM (inactive) | – | > 100 µM (inactive) | 27.7 µM (inactive) | 40.4 µM (inactive) | – | 65 µM (inactive)
19 | CCCCCCCCCCCCCCCCc1c(O)nc(NC#N)nc1C(=O)OC | > 25 µM (inactive) | > 25 µM (inactive) | – | > 25 µM (inactive) | > 25 µM (inactive) | > 25 µM (inactive) | > 25 µM (inactive) | > 25 µM (inactive) | > 25 µM (inactive)
20 | CN/N=C(/Cc1occc(=O)c1O)C(=O)Nc1ccccc1C | – | > 100 µM (inactive) | – | – | > 100 µM (inactive) | > 100 µM (inactive) | > 100 µM (inactive) | – | –
21 | Cc1cn2c(=O)c3ccccc3nc2s1 | > 100 µM (inactive) | > 100 µM (inactive) | > 100 µM (inactive) | – | > 100 µM (inactive) | > 100 µM (inactive) | > 100 µM (inactive) | – | –
22 | O=C(COc1ccccc1Cl)N1N=C(c2ccccc2)CC1(O)c1ccccc1 (stereo not given) | 18.5 µM (inactive) | – | 16.7 µM (inactive) | – | 16.1 µM (inactive) | 17.1 µM (inactive) | 19 µM (inactive) | – | 17.6 µM (inactive)
23 | Cc1cc(C(O)CCCc2ccccc2)cc(C)c1O (stereo not given) | – | 26.2 µM (inactive) | – | > 100 µM (inactive) | > 100 µM (inactive) | 47.5 µM (inactive) | 37.7 µM (inactive) | 51.5 µM (inactive) | –
24 | NC1=NC2=c3ccccc3=C(c3cnccn3)C2(c2cnccn2)c2ccccc21 (stereo not given) | > 100 µM (inactive) | 50.4 µM (inactive) | > 100 µM (inactive) | > 100 µM (inactive) | > 100 µM (inactive) | – | > 100 µM (inactive) | – | 36.7 µM (inactive)
25 | CN(c1ccccc1)c1c(Cl)c(=O)oc2c1ccc1occc12 | > 100 µM (inactive) | > 100 µM (inactive) | > 100 µM (inactive) | > 100 µM (inactive) | > 100 µM (inactive) | > 100 µM (inactive) | > 100 µM (inactive) | > 100 µM (inactive) | –
26 | CCOC(=O)c1cn(CC)c2cc3c(cc2c1=O)SCS3 | > 100 µM (inactive) | > 100 µM (inactive) | > 100 µM (inactive) | 80 µM (inactive) | > 100 µM (inactive) | > 100 µM (inactive) | > 100 µM (inactive) | > 100 µM (inactive) | –
